According to PubChem BioAssay (NCI):
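GI50: concentration for 50% inhibition of growth. The concentration for full growth arrest is given as TGI.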

Assays:
Test in all cases: NCI anticancer screen, dose series, 384-well format
COLO 205 colon = tested on: COLO 205 colon
HCT-15 colon = tested on: HCT-15 colon
MCF7 breast = tested on: MCF7 breast
MDA-MB-435 melanoma = tested on: MDA-MB-435 melanoma
NCI/ADR-RES ovarian = tested on: NCI/ADR-RES ovarian
UO-31 renal = tested on: UO-31 renal
OVCAR-8 ovarian = tested on: OVCAR-8 ovarian
HOP-92 NSCLC = tested on: HOP-92 NSCLC
T-47D breast = tested on: T-47D breast
786-0 renal = tested on: 786-0 renal
TK-10 renal = tested on: TK-10 renal
SNB-19 CNS = tested on: SNB-19 CNS
UACC-257 melanoma = tested on: UACC-257 melanoma
SF-295 CNS = tested on: SF-295 CNS
MALME-3M melanoma = tested on: MALME-3M melanoma
NCI-H322M lung = tested on: NCI-H322M lung
NCI-H23 lung = tested on: NCI-H23 lung
HT29 colon = tested on: HT29 colon
MDA-MB-231 breast = tested on: MDA-MB-231 breast
A498 renal = tested on: A498 renal
SK-MEL-28 melanoma = tested on: SK-MEL-28 melanoma
SF-268 CNS = tested on: SF-268 CNS
SK-OV-3 ovarian = tested on: SK-OV-3 ovarian
SF-539 CNS = tested on: SF-539 CNS
DU-145 prostate = tested on: DU-145 prostate
OVCAR-5 ovarian = tested on: OVCAR-5 ovarian
HL-60(TB) leukemia = tested on: HL-60(TB) leukemia
RPMI-8226 leukemia = tested on: RPMI-8226 leukemia
K-562 leukemia = tested on: K-562 leukemia
CCRF-CEM leukemia = tested on: CCRF-CEM leukemia
SK-MEL-5 melanoma = tested on: SK-MEL-5 melanoma
IGROV1 ovarian = tested on: IGROV1 ovarian
NCI-H460 NSCLC = tested on: NCI-H460 NSCLC
OVCAR-4 ovarian = tested on: OVCAR-4 ovarian
A549 NSCLC = tested on: A549 NSCLC
HCC-2998 colon = tested on: HCC-2998 colon
SR leukemia = tested on: SR leukemia
NCI-H226 lung = tested on: NCI-H226 lung
HOP-62 NSCLC = tested on: HOP-62 NSCLC
M14 melanoma = tested on: M14 melanoma
MDA-MB-468 breast = tested on: MDA-MB-468 breast
SW-620 colon = tested on: SW-620 colon
HCT-116 colon = tested on: HCT-116 colon
SN12C renal = tested on: SN12C renal
PC-3 prostate = tested on: PC-3 prostate
UACC-62 melanoma = tested on: UACC-62 melanoma
RXF 393 renal = tested on: RXF 393 renal
ACHN renal = tested on: ACHN renal
OVCAR-3 ovarian = tested on: OVCAR-3 ovarian
CAKI-1 renal = tested on: CAKI-1 renal
KM12 colon = tested on: KM12 colon
BT-549 breast = tested on: BT-549 breast
SK-MEL-2 melanoma = tested on: SK-MEL-2 melanoma
MOLT-4 leukemia = tested on: MOLT-4 leukemia
U251 glioblastoma = tested on: U251 glioblastoma
LOX IMVI melanoma = tested on: LOX IMVI melanoma

CCCC[C@@H](COC(=O)N(Cc1cccs1)Cc1cccs1)NC(=O)N[C@@H](CC(=O)OC)c1ccc2c(c1)OCO2
GI50 (COLO 205 colon): > 100 µM | TGI (COLO 205 colon): > 100 µM | GI50 (HCT-15 colon): > 100 µM | TGI (HCT-15 colon): > 100 µM | GI50 (MCF7 breast): > 100 µM | TGI (MCF7 breast): > 100 µM | GI50 (MDA-MB-435 melanoma): > 100 µM | TGI (MDA-MB-435 melanoma): > 100 µM | GI50 (NCI/ADR-RES ovarian): 55.5 µM | TGI (NCI/ADR-RES ovarian): > 100 µM | GI50 (UO-31 renal): 53.2 µM | TGI (UO-31 renal): > 100 µM | GI50 (OVCAR-8 ovarian): > 100 µM | TGI (OVCAR-8 ovarian): > 100 µM | GI50 (HOP-92 NSCLC): > 100 µM | TGI (HOP-92 NSCLC): > 100 µM | GI50 (T-47D breast): 50.5 µM | TGI (T-47D breast): > 100 µM | GI50 ([…]-0 renal): > 100 µM | TGI (786-0 renal): > 100 µM | GI50 (TK-10 renal): > 100 µM | TGI (TK-10 renal): > 100 µM | GI50 (SNB-19 CNS): > 100 µM | TGI (SNB-19 CNS): > 100 µM | GI50 (UACC-257 melanoma): > 100 µM | TGI (UACC-257 melanoma): > 100 µM | GI50 (SF-295 CNS): > 100 µM | TGI (SF-295 CNS): > 100 µM | GI50 (MALME-3M melanoma): > 100 µM | TGI (MALME-3M melanoma): > 100 µM | GI50 (NCI-H322M lung): > 100 µM | TGI (NCI-H322M lung): > 100 µM | GI50 (NCI-H23 lung): 90.7 µM | TGI (NCI-H23 lung): > 100 µM | GI50 (HT29 colon): > 100 µM | TGI (HT29 colon): > 100 µM | GI50 (MDA-MB-231 breast): > 100 µM | TGI (MDA-MB-231 breast): > 100 µM | GI50 (A498 renal): > 100 µM | TGI (A498 renal): > 100 µM | GI50 (SK-MEL-28 melanoma): > 100 µM | TGI (SK-MEL-28 melanoma): > 100 µM | GI50 (SF-268 CNS): > 100 µM | TGI (SF-268 CNS): > 100 µM | GI50 (SK-OV-3 ovarian): > 100 µM | TGI (SK-OV-3 ovarian): > 100 µM | GI50 (SF-539 CNS): > 100 µM | TGI (SF-539 CNS): > 100 µM | GI50 (DU-145 prostate): > 100 µM | TGI (DU-145 prostate): > 100 µM | GI50 (OVCAR-5 ovarian): > 100 µM | TGI (OVCAR-5 ovarian): > 100 µM | GI50 (HL-60(TB) leukemia): 14.6 µM | TGI (HL-60(TB) leukemia): > 100 µM | GI50 (RPMI-8226 leukemia): 2.87 µM | TGI (RPMI-8226 leukemia): 6.14 µM | GI50 (K-562 leukemia): > 100 µM | TGI (K-562 leukemia): > 100 µM | GI50 (CCRF-CEM leukemia): > 100 µM | TGI (CCRF-CEM leukemia): > 100 µM | GI50 (SK-MEL-5 melanoma): 83 µM | TGI (SK-MEL-5 melanoma): > 100 µM | GI50 (IGROV1 ovarian): > 100 µM | TGI (IGROV1 ovarian): > 100 µM | GI50 (NCI-H460 NSCLC): > 100 µM | TGI (NCI-H460 NSCLC): > 100 µM | GI50 (OVCAR-4 ovarian): > 100 µM | TGI (OVCAR-4 ovarian): > 100 µM | GI50 (A549 NSCLC): > 100 µM | TGI (A549 NSCLC): > 100 µM | GI50 (HCC-2998 colon): > 100 µM | TGI (HCC-2998 colon): > 100 µM | GI50 (SR leukemia): 6.03 µM | TGI (SR leukemia): > 100 µM | GI50 (NCI-H226 lung): > 100 µM | TGI (NCI-H226 lung): > 100 µM | GI50 (HOP-62 NSCLC): > 100 µM | TGI (HOP-62 NSCLC): > 100 µM | GI50 (M14 melanoma): > 100 µM | TGI (M14 melanoma): > 100 µM | GI50 (MDA-MB-468 breast): > 100 µM | TGI (MDA-MB-468 breast): > 100 µM | GI50 (SW-620 colon): > 100 µM | TGI (SW-620 colon): > 100 µM | GI50 (HCT-116 colon): 7.28 µM | TGI (HCT-116 colon): > 100 µM | GI50 (SN12C renal): > 100 µM | TGI (SN12C renal): > 100 µM | GI50 (PC-3 prostate): > 100 µM | TGI (PC-3 prostate): > 100 µM | GI50 (UACC-62 melanoma): 65 µM | TGI (UACC-62 melanoma): > 100 µM | GI50 (RXF 393 renal): 5.08 µM | TGI (RXF 393 renal): > 100 µM | GI50 (ACHN renal): > 100 µM | TGI (ACHN renal): > 100 µM | GI50 (OVCAR-3 ovarian): > 100 µM | TGI (OVCAR-3 ovarian): > 100 µM | GI50 (CAKI-1 renal): > 100 µM | TGI (CAKI-1 renal): > 100 µM | GI50 (KM12 colon): > 100 µM | TGI (KM12 colon): > 100 µM | GI50 (BT-549 breast): > 100 µM | TGI (BT-549 breast): > 100 µM | GI50 (SK-MEL-2 melanoma): > 100 µM | TGI (SK-MEL-2 melanoma): > 100 µM | GI50 (MOLT-4 leukemia): 2.28 µM | TGI (MOLT-4 leukemia): 4.54 µM | GI50 (U251 glioblastoma): > 100 µM | TGI (U251 glioblastoma): > 100 µM | GI50 (LOX IMVI melanoma): > 100 µM | TGI (LOX IMVI melanoma): > 100 µM
